Reference: patent publication US6827926B2, “Metallotetrapyrrolic photosensitizing agents for use in photodynamic therapy” (Miravant Pharmaceuticals, Inc., priority 2001, dated 2004)
Where two headings read alike, the source gives them in different places.

How the values were obtained:
[1] = system: normal uninjured rat carotid arteries (medial and adventitial cell populations); assay: In vivo rat carotid artery acellularity after PDT; parameters: species or system Sprague Dawley rats; settings: for Max % rat Artery Accelularity: Table 3, 50 J/cm^2, 3 days post treatment; for Max % Rat Artery Accelularity: Table 4
Procedure: The acute effects of metallated photosensitizers, in response to light activation, to cause depletion of cell populations in the medial and adventitial layers of vessels was measured in normal uninjured rat carotid arteries. […] Shortly before the light treatment, the rats were anaesthetized with 3.5% isoflurane (Abbott Laboratories, IL, USA) and the femoral region of the right leg was shaved and cleaned. […] A direct arteriotomy was performed and a light balloon catheter ([…] Medical Technologies, Inc) was introduced into the vessel and advanced retrogradely into a non-manipulated region of the left common carotid artery via the abdominal aorta. […] After light treatment and removal of the catheter, the right femoral artery was tied off and the skin wound was closed. Rats were sacrificed three days post treatment as this corresponds to the known peak time that vascular cells, e.g., VSMC and myofibroblasts, proliferate and migrate in response to an injury. The area spanning both left and right carotid arteries and surrounding tissue was harvested, fixed, embedded in paraffin and sectioned. The tissues were stained with Hematoxylin and Eosin (Fisher Scientific, PA) and examined by light microscopy to histologically assess the cell population density in the medial and adventitial layers of the PDT-treated vessel wall. […] Metallo azaporphyrins with Ga, Zn, Al, Sn were excited at 575 nm, while Pt azaporphyrins were excited at 532 nm.

[2] = system: normal skin of CD Hairless male rats; assay type: in vivo, rat
Text: We tested metallo- and metal-free tetrapyrroles systemically (see following section) for normal skin response in relation to the pharmacodynamic distribution of the photosensitizers in CD hairless rats. The skin of CD hairless rats are poorly developed, often referred to as hyperkeratotic, with various sized cystic hair follicles containing concentric lamellar accumulations of keratinaceous material, which are often associated with enlarged sebaceous glands. It quickly became apparent that gallium tetrapyrroles induced a marked clearing of the hyperkeratotic lesions in the treatment areas on the hairless rats. In fact, this clearing could be induced without necrosis of the skin. No other metallotetrapyrrole type produced such effects. This observation led us to assess the metallotetrapyrrolic compounds for skin restructuring effects both topically and systemically and for their ability to reduce hair growth in the following animal models.
Photosensitizer normal skin response as well as skin healing response, was evaluated using CD Hairless male rats. Photosensitizers were administered in an liposomal egg yolk phospholipid formulation at 1, 1.5 and 2 μmol/kg body weight formulation per dose group as a single bolus intravenous injection given through a marginal tail vein using a 27 gauge needle and a 1 cc tuberculin syringe. Normal skin responses were evaluated by irradiating several spots on the skin of the rat with a 532 nm laser (150 mW/cm^2, 150J, 1 cm diameter) at 1, 6, 24, 48, and 96 hrs post injection. Normal skin responses were evaluated and documented. The time at which the last spot is observed at the concentration injected is reported in the far right hand column in Tables 3, 4, 5 and 6. Skin samples were taken for histological evaluation at days 1, 10, 20 and 22 post light treatment. Rats were housed under normal lighting and all study procedures involving the test article were conducted under light filtered through blue and green Roscolox light filters to prevent photoactivation or degradation of the drug.

[3] = system: V79 (Chinese Hamster Lung Fibroblasts) cells; assay: In vitro cytotoxicity assay (light EC50, Alamar blue); assay type: cell-based
Outline: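 V79 cells in phenol-free 5% FBS/DMEM exposed 24 h to photosensitizer at final 0.01–5.0 μM, six replicates, then washed and light-treated, with a dark plate as control. Survival by Alamar blue after 24 h dark incubation, read at 570/600 nm.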

[4] = Table 3 porphyrins, 24 h drug incubation, 532 nm, 1.25 J/cm^2, read-out: In Vitro EC50 Light
[5] = drug dose 1 μMol, 575 nm (Pt 532 nm)
[6] = Table 4 azaporphyrins, 575 nm (Pt azaporphyrins 532 nm), 1.25 J/cm^2, read-out: In Vitro EC(50)
[7] = Table 3, time of last skin spot observed post injection, 1 μmol, 532 nm laser

SMILES | Normal skin Response (1 μmol) ([2]; rat, in vivo) [h] | Max % rat Artery Accelularity ([1]; drug dose 1 μMol) [%] | EC50 [3, 4] [nM] | Max % Rat Artery Accelularity [1, 5] [%] | Normal skin Response (1 μmol) ([2]; Table 4, time of last skin spot observed post injection, 1 μmol) [h] | EC50 [3, 6] [nM] | Max % Rat Artery Accelularity ([1]; drug dose 0.5 μMol) [%] | Normal skin Response (1 μmol) [2, 7] [h]
C=CC1=C(C)c2nc1cc1[n-]c(cc3nc(cc4[n-]c(n2)c(C)c4CCC(=O)OC)C(CCC(=O)OC)=C3C)c(C=C)c1C.[Cl-].[Ga+3] [Example 19, Gallium Chloride 5-azaprotoporphyrin IX Dimethyl Ester] |  |  |  | 55 | 24 | 400 |  | 
CCC1=C(CC)C2=[N+]3C1=Nc1c(CC)c(CC)c4[n]1[Ga-2]31([Cl])[n]3c(c(C)c(CCC(=O)OC)c3=CC3=[N+]1C(=C4)C(C)=C3CCC(=O)OC)=C2 [Example 21, Gallium Chloride 7,8,12,13-tetraethyl-12,17-dimethyl-10-azaporphyrin-2,18-di(propionic acid methyl ester)] | 24 |  |  | 60 |  | 400 |  | 
CCOC(=O)CCCCC1=C(C)c2cc3[n-]c(cc4nc(cc5[n-]c(cc1n2)c(CCCCC(=O)OCC)c5C)C(C)=C4CC)c(C)c3CC.[Cl-].[Ga+3] [Example 28, Gallium Chloride 8,13-diethyl-3,7,12,17-tetramethylporphyrin-2,18-di(pentanoic acid ethyl ester)] | 6 | 80 | 400 |  |  |  |  | 
CC1=Cc2cc3[n-]c(cc4nc(cc5[n-]c(cc1n2)cc5C)C(C)=C4CCC(=O)OCCF)c(CCC(=O)OCCF)c3C.[Cl-].[Ga+3] [Example 37, Gallium Chloride Deuteroporphyrin di (2-fluoroethylester)] |  | 80 | 400 |  |  |  |  | 48
COC(=O)CCC1=C(C)c2cc3[n-]c(cc4nc(cc5[n-]c(cc1n2)c(CCC(=O)OC)c5C)C(CO)=C4C)c(CO)c3C.[Cl-].[Ga+3] [Example 40, Gallium Chloride 3,8-hydroxymethyl deuteroporphyrin dimethyl ester] |  | 5 | 600 |  |  |  |  | 6
C=CC1=C(C)c2cc3[n-]c(cc4nc(cc5[n-]c(cc1n2)c(C)c5CCC(=O)OC)C(CCC(=O)OC)=C4C)c(C)c3C=C.[Cl-].[Ga+3] [Example 42, Gallium Chloride Protoporphyrin Dimethyl Ester] |  | 70 | 480 |  |  |  |  | 6
CCC1=C(C)C2=NC1=Cc1c(C)c(CC)c3[n]1[Sn]([Cl])([Cl])[n]1c(c(C)c(CCCC(=O)OC)c1=CC1=NC(=C3)C(C)=C1CCCC(=O)OC)=C2 [Example 45, Tin(IV) Dichloride 8,13-diethyl-3,7,12,17-tetramethylporphyrin-2,18-di(butanoic acid methyl ester)] |  | 20 | 1500 |  |  |  |  | 24
CCCOC(=O)CCCC1=C(C)C2=Cc3c(CC)c(C)c4[n]3[Ga]([Cl])[n]3c(c(C)c(CCCC(=O)OCCC)c3=CC1=N2)=CC1=NC(=C4)C(CC)=C1C [Example 50, Gallium 8,13-diethyl-3,7,12,17-tetramethylporphyrin-2,18-di(butanoic acid propyl ester)] |  | 80 | 400 |  |  |  |  | 48
CCOC(=O)CCCCC1=C(C)c2cc3[n-]c(cc4nc(cc5[n-]c(cc1n2)c(CCCCC(=O)OCC)c5C)C(C)=C4CC)c(C)c3CC.[Cl-].[In+3] [Example 52, Indium Chloride 8,13-diethyl-3,7,12,17-tetramethylporphyrin-2,18-di(pentanoic acid ethyl ester)] | 48 | 75 | 50 |  |  |  |  | 

The next lines start with results.

Normal skin Response (1 μmol) ([2]; rat, in vivo) [h] | SMILES | Max % rat Artery Accelularity ([1]; drug dose 1 μMol) [%] | EC50 [3, 4] [nM] | Max % Rat Artery Accelularity [1, 5] [%] | Normal skin Response (1 μmol) ([2]; Table 4, time of last skin spot observed post injection, 1 μmol) [h] | EC50 [3, 6] [nM] | Max % Rat Artery Accelularity ([1]; drug dose 0.5 μMol) [%] | Normal skin Response (1 μmol) [2, 7] [h]
96 | CCC1=C(C)C2=[N+]3C1=Cc1c(C)c(CC)c4[n]1[Ga-2]31([Cl])[n]3c(c(C)c(CCC(=O)N(CC)CC)c3=CC3=[N+]1C(=C4)C(C)=C3CCC(=O)N(CC)CC)=C2 [Example 15, Gallium Chloride Mesoporphyrin N,N-diethylamide] | 60 | 450 |  |  |  |  | 
48 | CCC1=C(CC)C2=[N+]3C1=Nc1c(CC)c(CC)c4[n]1[Ga-2]31([Cl])[n]3c(c(C)c(CCC(=O)NC)c3=CC3=[N+]1C(=C4)C(C)=C3CCC(=O)NC)=C2 [Example 22, Gallium Chloride 7,8,12,13-tetraethyl-12,17-dimethyl-10-azaporphyrin-2,18-di(propionic acid methyl amide)] |  |  |  |  | 450 | 50 | 
96 | CCC1=C(C)c2cc3[n-]c(cc4nc(cc5[n-]c(cc1n2)c(C)c5CCC(=O)OC)C(CCC(=O)OC)=C4C)c(C)c3CC.[Cl-].[In+3] [Example 31, Indium Chloride Mesoporphyrin Dimethyl Ester] | 90 | 70 |  |  |  |  | 
24 | CCC1=C(C)c2cc3[n-]c(cc4nc(cc5[n-]c(cc1n2)c(C)c5CCC(=O)OCCF)C(CCC(=O)OCCF)=C4C)c(C)c3CC.[Cl-].[Ga+3] [Example 34, Gallium Chloride Mesoporphyrin di (2-fluoroethylester)] | 80 | 400 |  |  |  |  | 
96 | CCC1=C(C)c2cc3[n-]c(cc4nc(cc5[n-]c(cc1n2)c(C)c5CC)C(C)=C4CCC(=O)OCCCCl)c(CCC(=O)OCCCCl)c3C.[Cl-].[Ga+3] [Example 35, Gallium Chloride Mesoporphyrin di (3-chloropropylester)] | 80 | 400 |  |  |  |  | 
96 | CC1=Cc2cc3[n-]c(cc4nc(cc5[n-]c(cc1n2)cc5C)C(C)=C4CCC(=O)OCCCCl)c(CCC(=O)OCCCCl)c3C.[Cl-].[Ga+3] [Example 36, Gallium Chloride Deuteroporphyrin di (3-chloropropylester)] | 80 | 400 |  |  |  |  | 
24 | CC1=Cc2cc3[n-]c(cc4nc(cc5[n-]c(cc1n2)c(C)c5CCC(=O)OCC(F)(F)F)C(CCC(=O)OCC(F)(F)F)=C4C)cc3C.[Cl-].[Ga+3] [Example 38, Gallium Chloride Deuteroporphyrin di (2,2,2-trifluoroethylester)] | 80 | 400 |  |  |  |  | 
6 | COC(=O)CCC1=C(C)c2cc3[n-]c(cc4nc(cc5[n-]c(cc1n2)c(CCC(=O)OC)c5C)C(Br)=C4C)c(Br)c3C.[Cl-].[Ga+3] [Example 39, Gallium Chloride 3,8-dibromodeuteroporphyrin dimethyl ester] | 75 | 400 |  |  |  |  | 
48 | COC(=O)CCC1=C(C)C2=Cc3c(C)c(CN(C)C)c4[n]3[Pt][n]3c(c(C)c(CCC(=O)OC)c3=CC1=N2)=CC1=NC(=C4)C(C)=C1CN(C)C [Example 41, Platinum 3,8-Bis(dimethylaminomethyl) deuteroporphyrin dimethyl ester] | 0 | 200 |  |  |  |  | 
24 | CCOC(=O)CCCCC1=C(C)C2=Cc3c(CC)c(C)c4[n]3[Sn]([Cl])([Cl])[n]3c(c(C)c(CCCCC(=O)OCC)c3=CC1=N2)=CC1=NC(=C4)C(CC)=C1C [Example 51, Tin(IV)dichloride 8,13-diethyl-3,7,12,17-tetramethylporphyrin-2,18-di(pentanoic acid ethyl ester)] | 20 | 1700 |  |  |  |  | 
